Test [1] addresses r(G4C2)8. Put plainly: Biolayer interferometry (BLI) binding. Particulars: for Kd: BLI. The protocol: (§1) Biolayer Interferometry (BLI). BLI studies were performed similarly as previously described (12) using an Octet RED96. Briefly, 5′-biotinylated nucleic acids were folded by heating at 95° C. for 4 min in 10 mM sodium phosphate buffer, pH 7, followed by slowly cooling to room temperature. Then, to the folded RNA were added the following components: 1.386 mL 1×DPBS (21-031-CV, Corning), 180 μL freshly prepared 1% (w/v) BSA, 36 μL 1% (v/v) Tween-20, and 18 μL DMSO (1% final concentration) in a final volume of 1.8 mL. The final concentration of RNA was 0.5 μM. Separately, serial dilutions of the compound of interest were prepared in the same buffer.
(§2) The resulting curves were analyzed and processed using Octet Data Analysis software version 9.1 by subtracting the response of the sensors recorded upon incubation with solutions containing compound and no RNA (parallel reference). The data were then fitted assuming reversible binding using the entire time interval for association and dissociation using either 1:1 or the 2:1 heterogeneous binding curve fitting model. The reported Kd,n, kon,n and koff,n values represent the average of two independent experiments.
Background: In BLI a coated tip is dipped into the sample, and binding shifts an interference pattern.

A further test has as its target d(G4C2)8. Description: Biolayer interferometry (BLI) binding. Particulars: BLI. The method, then:
as §1
as §2, with “Streptavidin sensors (SA, #18-5019, ForteBio) were equilibrated with buffer for 10 min at room temperature using 96-well black microplate (Greiner; Catalog #: 655209). The following time intervals were used during data acquisition (30° C. with shaking at 1000 rpm): baseline step, 180 s; loading of RNA, 900 s; washing, 180 s; association of compound, 1800 s; and dissociation of compound, 1800 s. The resulting” for “The resulting”

The target in the next test is r(G2C2)10. Put plainly: Biolayer interferometry (BLI) binding. The following applies: BLI; read-out: Kd, 1. The method, then:
as §1
as §2, with “Streptavidin sensors (SA, #18-5019, ForteBio) were equilibrated with buffer for 10 min at room temperature using 96-well black microplate (Greiner; Catalog #: 655209). The following time intervals were used during data acquisition (30° C. with shaking at 1000 rpm): baseline step, 180 s; loading of RNA, 900 s; washing, 180 s; association of compound, 1800 s; and dissociation of compound, 1800 s. The resulting” for “The resulting”

In a further test the target is r(G2C4)8. Put plainly: Biolayer interferometry (BLI) binding. Particulars: BLI. The method, then: as §1
as §2, with “Streptavidin sensors (SA, #18-5019, ForteBio) were equilibrated with buffer for 10 min at room temperature using 96-well black microplate (Greiner; Catalog #: 655209). The following time intervals were used during data acquisition (30° C. with shaking at 1000 rpm): baseline step, 180 s; loading of RNA, 900 s; washing, 180 s; association of compound, 1800 s; and dissociation of compound, 1800 s. The resulting” for “The resulting”

Test [2] has as its system r(G4C2)8 and hnRNP H1 complex. Description: TR-FRET hnRNP H binding assay. Format: biochemical. The following applies: for IC50: inhibiting r(G4C2)8 and hnRNP H1 complex formation, 7 in the absence of Rnase L. The method, then:
TR-FRET hnRNP H Binding Assay. TR-FRET assays were performed as previously described (12). The mixture was incubated for 15 min at room temperature and then hnRNP H1-His6 was added. After an additional 15 min incubation, streptavidin-XL665 (HTRF, Cisbio Bioassays) and anti-His6-Tb (HTRF, Cisbio Bioassays) were added to a final concentration of 40 nM and 0.44 ng/μL, respectively. After incubating for 1 h, TR-FRET was measured as previously described (12).

The subject of test [3] is r(G4C2)8. Description: In vitro Chem-CLIP and C-Chem-CLIP. Format: binding. The method, then:
In vitro Chemical Cross-linking and Isolation by Pull-Down (Chem-CLIP) and Competitive Chemical Cross-linking and Isolation by Pull-Down (C-Chem-CLIP): Approximately 10,000 counts of ^32P 5′-end labeled r(G4C2)8 was folded in 1×Folding Buffer at 95° C. for 1 min. After cooling to room temperature, the Chem-CLIP probe at the desired concentrations (5, 10, 100, 500, 1000, 5000, 10000 nM) was added, and the samples were incubated at 37° C. for 18 h. For C-Chem-CLIP studies, the parent compound (10, 100, 500, 1000, 5000, 10000 nM) was incubated with RNA for 1 h before addition of the Chem-CLIP probe (500 nM).
Cross-linked RNAs were clicked to biotin […] azide (10 μL of a 5 mM stock solution in DMSO) by incubating in a solution containing 25 mM HEPES (pH 7.1), 250 mM sodium ascorbate, 10 mM CuSO4, and 50 mM THPTA (tris-hydroxypropyltriazolylmethylamine) for 6 h at 37° C. A 300 μL of streptavidin-agarose beads (Sigma-Aldrich) was washed three times and then resuspended in 1×PBS. An aliquot (20 μL) of the slurry was added to each sample, which was incubated for 1 h at room temperature. The samples were centrifuged and the supernatant containing unbound RNA was transferred to an unused tube. The beads were then washed three times with 1×PBS supplemented with 0.10% (v/v) Tween-20 and centrifuged, with each wash supernatant being added to the tube containing unbound RNA. The amounts of radioactivity in the supernatant and associated with the beads were quantified with a Beckman Coulter LS6500 Liquid Scintillation Counter.

Test [4] relates to quadruplex form of r(G4C2) repeats, r(G2C2)10, d(G4C2)8, d(G2C2)10. Put plainly: In vitro Chem-CLIP, other nucleic acids. Format: binding.
Test [5] concerns C9orf72 mRNA variants. Put plainly: Cellular Chem-CLIP in patient-derived LCLs. Format: cell-based, human. Particulars: lymphoblastoid cells. The method, then: (§3) Cellular Chem-CLIP. For cellular Chem-CLIP studies, LCLs were grown in T-25 flasks while iPSCs were grown in 100 mm dishes. The cells were treated with Chem-CLIP probe (500 nM) overnight at 37° C. After removing the medium and washing with 1×PBS, fresh, ice-cold 1×PBS was added, and crosslinking was performed by UV irradiation at 365 nm for 10 min. The cells were collected, and total RNA was extracted with Qiagen micro RNEasy Kit per the manufacturer's protocol. Dynabeads MyOne Streptavidin C1 beads (Thermo Fisher Scientific 65001) were pre-loaded with biotin disulfide azide (Bioconjugate Technologies LLC dba Click Chemistry Tools) by incubating (10 μL of a 5 mM stock solution in DMSO in 500 μL PBS) with beads at room temperature for 30 min before magnetic capture. The beads were washed with High Salt Wash Buffer: (10 mM Tris-HCl pH 7.0, 1 mM EDTA, 4 M NaCl, 0.2% Tween-20) followed by two washes with Nanopure water. The click reaction between cross-linked RNAs and the Dynabeads displaying biotin disulfide azide was completed in a solution containing 25 mM HEPES, pH 7.1, 250 mM sodium ascorbate, 10 mM CuSO4, and 50 mM THPTA for 6 h at 37° C. […] The levels of C9orf72 mRNA in the purified, pull-down fraction were then measured by RT-qPCR as described above.

For test [6], the system named is C9orf72 mRNA variants. Description: Cellular Chem-CLIP in patient-derived iPSCs. The class given is cell-based, human. The method, then: as §3
In test [7] the test system is C9orf72 intron 1 harboring r(G4C2)exp. Description: C9orf72 intron 1 RT-qPCR in patient-derived LCLs. The class given is cell-based, human. Particulars: increasing concentrations. The protocol: Measuring Levels of C9orf72 and C9orf72 Variants by RT-qPCR. LCLs were seeded in 6-well plate (˜10^6 cells in 2 mL of growth medium) and incubated overnight at 37° C. Cells were then treated with various concentrations of compound for 24 h or with G4C2-ASO and Control-ASO (100 nM), delivered by transfection with Lipofectamine RNAiMax. RNA was extracted as described above and the expression of C9orf72 variants was determined by RT-qPCR. […] For compound treatment well, medium change was performed with fresh compound every 3-4 days. RNA was extracted as described above and the expression of C9orf72 variants was determined by RT-qPCR.
On the technique in general: Quantitative PCR measures a nucleic acid by following its amplification.

Structures are written as SMILES. Read-outs that look alike come from different tables or passages of the source. Bounds are passed on as bounds.

As usually defined, the Kd is a measure of binding affinity in units of concentration. The IC50 is the point on the concentration scale where inhibition reaches its midpoint. Lower therefore signals greater potency in that assay.

Turning to `C#CCn1c2ccc(OC)cc2c2c(C)c3cnccc3c(C)c21` [Compound 1b], the dissociation constant Kd on r(G4C2)8 [1] (r(G4C2) repeats, read-out: Kd) was 11000 ± 140 nM. Further, the “avidity weaker than 1” value in the test with r(G4C2)8 [1] (Kd relative to 1) is recorded as approximately 37 fold.
As for `Cc1c2ccncc2c(C)c2c1[nH]c1ccc(OCCOCCOCCOCCOCCOCCOc3ccc4[nH]c5c(C)c6ccncc6c(C)c5c4c3)cc12` [Compound 2], the Kd at r(G4C2)8 [1] (read-out: Kd) amounted to 50 ± 8 nM; at r(G4C2)8 [1] (read-out: Kd, 2), 120 nM; at d(G4C2)8 (read-out: Kd, 1), 1.3 µM; at d(G4C2)8 (read-out: Kd, 2) it was 38 µM; at r(G2C2)10 it was 6 µM; on r(G2C4)8 (read-out: Kd, 1), 32 µM. In addition, on r(G2C4)8 (read-out: Kd, 2), the equilibrium dissociation constant (Kd) stood at 120 µM. Besides, the “more potent than 1” value in test [2] (IC50 relative to 1) is 10 fold. In test [2], this compound showed a 50% inhibitory concentration (IC50) of approximately 1800 nM.
On to `C#CCCC1(CCC(=O)N(CCOCCOCCOc2ccc3[nH]c4c(C)c5ccncc5c(C)c4c3c2)CCOCCOCCOc2ccc3[nH]c4c(C)c5ccncc5c(C)c4c3c2)N=N1` [Compound 4], for which the RNA pulled down in the test on r(G4C2)8 [3] (500 nM compound) is listed as approximately 40%. Moreover, the “pull-down of other nucleic acids more than 5” value in [4] is listed as “did not statistically significantly pull-down”. Further, the figures for the “enrichment of variants with r(G4C2)exp” value in the test on C9orf72 mRNA variants [5] (500 nM probe) and in the test on C9orf72 mRNA variants [6] (500 nM probe) were 1.9±0.4 fold and 2.3±0.2 fold, respectively. In addition, the “enrichment of variants that do not contain the repeat expansion” value with C9orf72 mRNA variants [5] and in the test with C9orf72 mRNA variants [6] was “no enrichment” each time.
Consider `C#CCCC1(CCC(=O)NCCC)N=N1` [Compound 5], for which the RNA pulled down in the test on r(G4C2)8 [3] (all concentrations tested, up to 10 μM) is recorded as less than 25%.
In the case of `CC(=O)N(CCOCCOCCOc1ccc2[nH]c3c(C)c4ccncc4c(C)c3c2c1)CCOCCOCCOc1ccc2[nH]c3c(C)c4ccncc4c(C)c3c2c1` [Compound 6], the equilibrium dissociation constant (Kd) on r(G4C2)8 [1] (exponent printed in row below, read-out: Kd, 1) was 200 nM; on r(G4C2)8 [1] (read-out: Kd, 2) it was 10600 nM. The compound further displayed a 50% inhibitory concentration (IC50) in test [2] of 2300 ± 300 nM. For the same compound, the “C9orf72 intron 1 levels on co-treatment with constant concentration of 7” value in test [7] was “dose-dependently restored”.

The record behind these values is patent US20230381170A1, “METHOD FOR TREATING ALS/FTD THROUGH DEGRADATION OF RNA REPEAT EXPANSION” (University of Florida Research Foundation, Incorporated, priority 2020, published 2023).
